Laboratory results taken from patent US20260053834A1, “COVALENT MODIFIERS OF AKT1 AND USES THEREOF” (Terremoto Biosciences, Inc., priority 2023, published 2026).

Columns and labels:
[1] = target: T1, AKT1 E17K (Homo sapiens, UniProt P31749, E17K); assay: Live cell target engagement by NanoBRET competitive probe displacement, AKT1 E17K; format: binding; conditions: transfected HEK293 cells, 2 h at 37° C., read-out: AKT1 E17K IC50: GeoMean IC50
T1 construct: expressed in transfected cells; host or cells: HEK293
T1 sequence (P31749 whole entry E17K): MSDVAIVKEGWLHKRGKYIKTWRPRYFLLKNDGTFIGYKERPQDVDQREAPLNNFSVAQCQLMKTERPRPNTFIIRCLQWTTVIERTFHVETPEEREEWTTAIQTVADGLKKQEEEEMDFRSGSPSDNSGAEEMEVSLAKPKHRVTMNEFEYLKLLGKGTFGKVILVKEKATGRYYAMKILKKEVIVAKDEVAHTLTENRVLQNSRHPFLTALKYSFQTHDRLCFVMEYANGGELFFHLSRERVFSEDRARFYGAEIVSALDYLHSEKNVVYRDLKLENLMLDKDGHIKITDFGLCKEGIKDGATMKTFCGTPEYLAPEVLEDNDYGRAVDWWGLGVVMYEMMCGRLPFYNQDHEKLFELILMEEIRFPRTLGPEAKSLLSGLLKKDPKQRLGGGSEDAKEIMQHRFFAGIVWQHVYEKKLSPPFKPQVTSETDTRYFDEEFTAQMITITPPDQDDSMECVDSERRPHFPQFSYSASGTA

[2] = target: T2, AKT2 (Homo sapiens, UniProt P31751); assay: Live cell target engagement by NanoBRET competitive probe displacement, AKT2; format: binding; conditions: transfected HEK293 cells, 2 h at 37° C., read-out: AKT2 IC50: GeoMean IC50
T2 construct: expressed in transfected cells; host or cells: HEK293
T2 sequence (P31751 whole entry): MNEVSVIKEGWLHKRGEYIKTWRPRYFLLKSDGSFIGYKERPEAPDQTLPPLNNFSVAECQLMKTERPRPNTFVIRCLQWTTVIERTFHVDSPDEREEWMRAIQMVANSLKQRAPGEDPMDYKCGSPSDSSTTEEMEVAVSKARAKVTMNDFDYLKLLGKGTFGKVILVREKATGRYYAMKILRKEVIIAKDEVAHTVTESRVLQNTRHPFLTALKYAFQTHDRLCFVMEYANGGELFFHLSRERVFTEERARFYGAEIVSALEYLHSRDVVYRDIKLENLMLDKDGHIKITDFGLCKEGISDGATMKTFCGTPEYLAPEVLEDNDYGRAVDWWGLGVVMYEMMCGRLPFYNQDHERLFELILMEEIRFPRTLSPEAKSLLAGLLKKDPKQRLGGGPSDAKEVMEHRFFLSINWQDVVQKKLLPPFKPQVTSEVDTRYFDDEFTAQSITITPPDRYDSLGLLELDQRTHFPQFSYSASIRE

[3] = target: T3, AKT1 WT (Homo sapiens, UniProt P31749); assay: Live cell target engagement by NanoBRET competitive probe displacement, AKT1 WT; format: binding; conditions: transfected HEK293 cells, 2 h at 37° C., read-out: AKT1 WT IC50: GeoMean IC50
T3 construct: expressed in transfected cells; host or cells: HEK293
T3 sequence (P31749 whole entry): as the sequence (P31749 whole entry E17K) above, with K17E counted along it

[4] = system: LAPC4 prostate cancer cells, which express the AKT1 E17K allele; assay: Antiproliferative effects in LAPC4 cells (CellTiter Glo, 72 h); format: cell-based; conditions: Homo sapiens, LAPC4, 72 h, read-out: LAPC4 proliferation IC50: GeoMean IC50
Outline: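 Cells grown in IMDM with 12% FBS, seeded at 1,000 cells/well and treated with compound dilutions in DMSO for 72 h. Intracellular ATP read by luminescence. IC50 from a log(inhibitor) vs. response Hill fit.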

Row | Structure (SMILES) | IC50 [1] [µM] | IC50 [2] [µM] | IC50 [3] [µM] | IC50 [4] [µM]
1 | Nc1ncccc1-c1nc2ccc(-c3cnccn3)nc2n1-c1ccc2c(c1)CC[C@@H]2NC(=O)c1cc(C=O)c2[nH]ncc2c1 [Example 73, (S)—N-(5-(2-(2-aminopyridin-3-yl)-5-(pyrazin-2-yl)-3H-imidazo[4,5-b]pyridin-3-yl)-2,3-dihydro-1H-inden-1-yl)-7-formyl-1H-indazole-5-carboxamide] | < 0.01 | 0.1 to 2 | 0.01 to 0.1 | 0.01 to 0.1
2 | COCc1cnn(-c2ccc3nc(-c4cccnc4N)n(-c4ccc5c(c4)CC[C@@H]5NC(=O)c4cc(C=O)c(O)cc4F)c3n2)c1 [Example 152, (S)—N-(5-(2-(2-aminopyridin-3-yl)-5-(4-(methoxymethyl)-1H-pyrazol-1-yl)-3H-imidazo[4,5-b]pyridin-3-yl)-2,3-dihydro-1H-inden-1-yl)-2-fluoro-5-formyl-4-hydroxybenzamide] | 0.01 to 0.1 | 0.1 to 2 | 0.1 to 2 | 0.1 to 2
3 | Nc1ncccc1-c1nc2ccc(-c3ccccc3)nc2n1-c1ccc2c(c1)CC[C@@H]2NC(=O)C1(c2cnc(C=O)c(O)c2)CC1 [Example 12, N-[(1S)-5-[2-(2-aminopyridin-3-yl)-5-phenylimidazo[4,5-b]pyridin-3-yl]-2,3-dihydro-1H-inden-1-yl]-1-(6-formyl-5-hydroxypyridin-3-yl)cyclopropane-1-carboxamide] | 0.1 to 2 | 0.1 to 2 | 0.1 to 2 | ≥ 2
4 | Nc1ncccc1-c1nc2ccc(-n3cccn3)nc2n1-c1ccc2c(c1)CC[C@@H]2NC(=O)c1cc(C=O)c(O)c2nccn12 [Example 169, N-[(1S)-5-[2-(2-aminopyridin-3-yl)-5-(pyrazol-1-yl)imidazo[4,5-b]pyridin-3-yl]-2,3-dihydro-1H-inden-1-yl]-7-formyl-8-hydroxyimidazo[1,2-a]pyridine-5-carboxamide] | ≥ 2 | ≥ 2 | ≥ 2 | 0.1 to 2
5 | CS(=O)(=O)Nc1cc(F)c(C(=O)N[C@H]2CCc3cc(-n4c(-c5cccnc5N)nc5ccc(-n6cccn6)nc54)ccc32)cc1C=O [Example 217, N-[(1S)-5-[2-(2-aminopyridin-3-yl)-5-(pyrazol-1-yl)imidazo[4,5-b]pyridin-3-yl]-2,3-dihydro-1H-inden-1-yl]-2-fluoro-5-formyl-4-methanesulfonamidobenzamide] | ≥ 2 | ≥ 2 | ≥ 2 | ≥ 2
6 | Nc1ncccc1-c1nc2ccc(-c3nccs3)nc2n1-c1ccc2c(c1)CC[C@@H]2NC(=O)c1cc(C=O)c(O)cc1F [Example 144, N-[(1S)-5-[2-(2-aminopyridin-3-yl)-5-(1,3-thiazol-2-yl)imidazo[4,5-b]pyridin-3-yl]-2,3-dihydro-1H-inden-1-yl]-2-fluoro-5-formyl-4-hydroxybenzamide] | 0.01 to 0.1 | 0.01 to 0.1 | 0.01 to 0.1 | 0.01 to 0.1
7 | Cc1cc(C)c2nc(-c3cccnc3N)n(-c3ccc4c(c3)CC[C@@H]4NC(=O)c3ccc(O)c(C=O)c3)c2n1 [Example 69, N-[(1S)-5-[2-(2-aminopyridin-3-yl)-5,7-dimethylimidazo[4,5-b]pyridin-3-yl]-2,3-dihydro-1H-inden-1-yl]-3-formyl-4-hydroxybenzamide] | 0.01 to 0.1 | ≥ 2 | 0.1 to 2 | 0.1 to 2
8 | Nc1ncccc1-c1nc2ccc(-n3cccn3)nc2n1-c1ccc2c(c1)C(O)C[C@@H]2NC(=O)c1ccc(O)c(C=O)c1 (single isomer, unassigned) [Example 98] | 0.01 to 0.1 | 0.1 to 2 | 0.01 to 0.1 | 0.1 to 2
9 | Nc1ncccc1-c1nc2ccc(Br)nc2n1-c1ccc2c(c1)CC[C@@H]2NC(=O)c1ccc(O)c(C=O)c1 [Example 37, (S)—N-(5-(2-(2-aminopyridin-3-yl)-5-bromo-3H-imidazo[4,5-b]pyridin-3-yl)-2,3-dihydro-1H-inden-1-yl)-3-formyl-4-hydroxybenzamide] | 0.01 to 0.1 | ≥ 2 | 0.1 to 2 | 0.1 to 2
10 | Nc1ncccc1-c1nc2c(C3CC3)cc(-n3cccn3)nc2n1-c1ccc2c(c1)CC[C@@H]2NC(=O)c1ccc(O)c(C=O)c1 [Example 230, N-[(1S)-5-[2-(2-aminopyridin-3-yl)-7-cyclopropyl-5-(pyrazol-1-yl)imidazo[4,5-b]pyridin-3-yl]-2,3-dihydro-1H-inden-1-yl]-3-formyl-4-hydroxybenzamide] | 0.01 to 0.1 | 0.1 to 2 | 0.01 to 0.1 | 0.1 to 2
11 | Nc1ncccc1-c1nc2ccc(-n3cccn3)nc2n1-c1ccc2c(c1)CC[C@@H]2N1CCc2cc(O)c(C=O)cc2C1=O [Example 177, 2-[(1S)-5-[2-(2-aminopyridin-3-yl)-5-(pyrazol-1-yl)imidazo[4,5-b]pyridin-3-yl]-2,3-dihydro-1H-inden-1-yl]-6-hydroxy-1-oxo-3,4-dihydroisoquinoline-7-carbaldehyde] | ≥ 2 | 0.1 to 2 | ≥ 2 | ≥ 2
12 | Nc1ncccc1-c1nc2ccc(-n3cccn3)nc2n1-c1ccc2c(c1)CC[C@@H]2NC(=O)c1ccc(O)c(C=O)c1 [Example 33, (S)—N-(5-(2-(2-aminopyridin-3-yl)-5-(1H-pyrazol-1-yl)-3H-imidazo[4,5-b]pyridin-3-yl)-2,3-dihydro-1H-inden-1-yl)-3-formyl-4-hydroxybenzamide] | 0.01 to 0.1 | 0.1 to 2 | 0.01 to 0.1 | 0.01 to 0.1
13 | Nc1ncccc1-c1nc2ccc(-c3nc(C(F)F)cs3)nc2n1-c1ccc2c(c1)CC[C@@H]2NC(=O)c1ccc(O)c(C=O)c1 [Example 147, N-[(1S)-5-[2-(2-aminopyridin-3-yl)-5-[4-(difluoromethyl)-1,3-thiazol-2-yl]imidazo[4,5-b]pyridin-3-yl]-2,3-dihydro-1H-inden-1-yl]-3-formyl-4-hydroxybenzamide] | 0.01 to 0.1 | 0.1 to 2 | 0.01 to 0.1 | 0.01 to 0.1
14 | C#Cc1ccc(C(=O)N[C@H]2CCc3cc(-n4c(-c5cccnc5N)nc5ccc(-n6cccn6)nc54)ccc32)cc1C=O [Example 155, N-[(1S)-5-[2-(2-aminopyridin-3-yl)-5-(pyrazol-1-yl)imidazo[4,5-b]pyridin-3-yl]-2,3-dihydro-1H-inden-1-yl]-4-ethynyl-3-formylbenzamide] | 0.01 to 0.1 | 0.01 to 0.1 | 0.01 to 0.1 | ≥ 2
15 | CS(=O)(=O)Nc1ncc(C(=O)N[C@H]2CCc3cc(-n4c(-c5cccnc5N)nc5ccc(-n6cccn6)nc54)ccc32)cc1C=O [Example 111, N-[(1S)-5-[2-(2-aminopyridin-3-yl)-5-(pyrazol-1-yl)imidazo[4,5-b]pyridin-3-yl]-2,3-dihydro-1H-inden-1-yl]-5-formyl-6-methanesulfonamidopyridine-3-carboxamide] | 0.1 to 2 | ≥ 2 | 0.1 to 2 | ≥ 2
16 | Nc1ncccc1-c1nc2ccc(-n3cc(C=O)cn3)nc2n1-c1ccc2c(c1)CC[C@@H]2NC(=O)c1ccc(O)c(C=O)c1 [Example 84, N-[(1S)-5-[2-(2-aminopyridin-3-yl)-5-(4-formylpyrazol-1-yl)imidazo[4,5-b]pyridin-3-yl]-2,3-dihydro-1H-inden-1-yl]-3-formyl-4-hydroxybenzamide] | 0.01 to 0.1 | 0.1 to 2 | 0.1 to 2 | 0.1 to 2
17 | COc1cc(-n2cccn2)nc2c1nc(-c1cccnc1N)n2-c1ccc2c(c1)CC[C@@H]2NC(=O)c1cc(C=O)c(O)c(F)c1F [Example 222, N-[(1S)-5-[2-(2-aminopyridin-3-yl)-7-methoxy-5-(pyrazol-1-yl)imidazo[4,5-b]pyridin-3-yl]-2,3-dihydro-1H-inden-1-yl]-2,3-difluoro-5-formyl-4-hydroxybenzamide] | 0.01 to 0.1 | 0.01 to 0.1 | 0.01 to 0.1 | 0.01 to 0.1
18 | CC(=O)Nc1ccc(C(=O)N[C@H]2CCc3cc(-n4c(-c5cccnc5N)nc5ccc(-n6cccn6)nc54)ccc32)cc1C=O [Example 56, N-[(1S)-5-[2-(2-aminopyridin-3-yl)-5-(pyrazol-1-yl)imidazo[4,5-b]pyridin-3-yl]-2,3-dihydro-1H-inden-1-yl]-4-acetamido-3-formylbenzamide] | < 0.01 | 0.1 to 2 | 0.01 to 0.1 | 0.01 to 0.1
19 | Nc1ncccc1-c1nc2cc(O)c(-n3cccn3)nc2n1-c1ccc2c(c1)CC[C@@H]2NC(=O)c1cc(C=O)c(O)cc1F [Example 226, N-[(1S)-5-[2-(2-aminopyridin-3-yl)-6-hydroxy-5-(pyrazol-1-yl)imidazo[4,5-b]pyridin-3-yl]-2,3-dihydro-1H-inden-1-yl]-2-fluoro-5-formyl-4-hydroxybenzamide] | 0.01 to 0.1 | 0.1 to 2 | 0.01 to 0.1 | 0.01 to 0.1
20 | Nc1ncccc1-c1nc2c(-n3cn[nH]c3=O)cc(-n3cccn3)nc2n1-c1ccc2c(c1)CC[C@@H]2NC(=O)c1ccc(O)c(C=O)c1 [Example 233, N-[(1S)-5-[2-(2-aminopyridin-3-yl)-7-(3-oxo-2H-1,2,4-triazol-4-yl)-5-(pyrazol-1-yl)imidazo[4,5-b]pyridin-3-yl]-2,3-dihydro-1H-inden-1-yl]-3-formyl-4-hydroxybenzamide] | 0.1 to 2 | 0.1 to 2 | 0.1 to 2 | 0.1 to 2
